Experiments:
PI3Kβ = target: T1, PI3Kβ (Homo sapiens, UniProt P42338); test: ADP-Glo Lipid Kinase Assay, PI3Kβ kinase activity; assay type: biochemical; conditions: ratio of IC50 values
T1 construct: purchased Carna #11-102
Description: (§1) In this experiment, ADP-Glo Lipid Kinase Assay (Promega #V9102) from Promega was used. The lipid kinases PI3Kα/β/γ/δ catalyzed the ATP-to-ADP reaction in the presence of the substrate PIP2:3PS and ATP. The lipid kinase activity was characterized by measuring the ADP content in the reaction, and the half inhibition concentrations IC50 of the compounds on PI3Kα/β/γ/δ kinase activity were obtained.
(§2) Kinase reactions were carried out in white 384-well plates (Perkin Elmer #6007299). 2 μL of the compound of various concentrations diluted with ddH2O containing 1% DMSO was added to each well, and 2 μL of ddH2O containing 1% DMSO was added to positive control wells. Then 2 μL of 0.1 to 2 nM PI3K kinase solution diluted with 5× kinase buffer (HEPES 250 mM, MgCl2 15 mM, NaCl 250 mM, BSA 0.05%) was added to each well, and 2 μL of 5× kinase buffer was added to the negative control wells. 4 μL of 50 μM substrate PIP2:3PS (Promega #V1701) prepared with 10× Dilution buffer and ddH2O was added to all wells. Finally, 2 μL of 50 to 100 μM ATP solution diluted with water was added to start the reaction. After the reaction was carried out at room temperature for 90 to 120 minutes, 10 µL of ADP-Glo Reagent (containing 10 mM MgCl2) was added to each well, and the reaction was carried out at room temperature for 60 minutes to eliminate excess adenosine triphosphate (ATP) in the reaction. Then 20 μL of Kinase Detection Reagent was added to each well. After the reaction was carried out for 20 minutes at room temperature in the dark, the chemiluminescence was measured by BioTek Synergy H1 microplate reader.
(§3) The percentage inhibition data of the compound-treated well was calculated from positive control wells (DMSO control wells) and negative control wells (no kinase added) on the plate {% inhibition=100−[(test compound value−negative control value)]/(positive control value-negative control value)×100}. IC50 values were calculated using GraphPad prism and using a four-parameter nonlinear logistic formula to fit the data of different concentrations and corresponding percent inhibition.

PI3Kγ = target: T2, PI3Kγ (Homo sapiens, UniProt P48736); test: ADP-Glo Lipid Kinase Assay, PI3Kγ kinase activity; assay type: biochemical; conditions: ratio of IC50 values
T2 construct: purchased Thermofisher #PV4786
T2 sequence (P48736 whole entry): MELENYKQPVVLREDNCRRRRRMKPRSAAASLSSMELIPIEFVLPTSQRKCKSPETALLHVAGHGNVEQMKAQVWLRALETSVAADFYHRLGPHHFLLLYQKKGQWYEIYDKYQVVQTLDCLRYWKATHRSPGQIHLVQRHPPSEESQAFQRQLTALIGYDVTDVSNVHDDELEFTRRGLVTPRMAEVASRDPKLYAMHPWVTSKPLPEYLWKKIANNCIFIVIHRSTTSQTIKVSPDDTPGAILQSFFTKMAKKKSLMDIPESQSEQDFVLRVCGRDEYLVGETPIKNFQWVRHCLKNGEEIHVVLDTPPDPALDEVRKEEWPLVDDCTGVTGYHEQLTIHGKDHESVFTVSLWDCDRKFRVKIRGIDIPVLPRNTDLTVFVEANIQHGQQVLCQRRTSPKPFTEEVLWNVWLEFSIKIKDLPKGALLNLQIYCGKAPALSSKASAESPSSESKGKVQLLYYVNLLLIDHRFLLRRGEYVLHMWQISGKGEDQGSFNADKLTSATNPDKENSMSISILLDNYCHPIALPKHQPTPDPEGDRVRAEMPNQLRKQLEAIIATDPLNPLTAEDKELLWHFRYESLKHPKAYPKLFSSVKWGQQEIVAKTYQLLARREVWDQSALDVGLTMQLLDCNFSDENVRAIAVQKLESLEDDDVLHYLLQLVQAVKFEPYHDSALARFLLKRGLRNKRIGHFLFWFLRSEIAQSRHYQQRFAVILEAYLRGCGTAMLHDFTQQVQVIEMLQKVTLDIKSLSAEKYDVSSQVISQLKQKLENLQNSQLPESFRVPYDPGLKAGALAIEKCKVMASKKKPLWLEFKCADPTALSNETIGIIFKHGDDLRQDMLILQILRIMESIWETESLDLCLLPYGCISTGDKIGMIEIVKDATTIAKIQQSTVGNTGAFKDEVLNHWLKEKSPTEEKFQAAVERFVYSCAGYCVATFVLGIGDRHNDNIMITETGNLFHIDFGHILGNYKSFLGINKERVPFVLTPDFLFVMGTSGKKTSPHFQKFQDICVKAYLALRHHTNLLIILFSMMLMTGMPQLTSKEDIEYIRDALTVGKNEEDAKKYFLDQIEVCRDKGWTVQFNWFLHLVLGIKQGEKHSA
Description: as §1, §2, §3

PI3Kδ = target: T3, PI3Kδ (Homo sapiens, UniProt O00329); test: ADP-Glo Lipid Kinase Assay, PI3Kδ kinase activity; assay type: biochemical; conditions: ratio of IC50 values
T3 construct: purchased Carna #11-103
T3 sequence (O00329 whole entry): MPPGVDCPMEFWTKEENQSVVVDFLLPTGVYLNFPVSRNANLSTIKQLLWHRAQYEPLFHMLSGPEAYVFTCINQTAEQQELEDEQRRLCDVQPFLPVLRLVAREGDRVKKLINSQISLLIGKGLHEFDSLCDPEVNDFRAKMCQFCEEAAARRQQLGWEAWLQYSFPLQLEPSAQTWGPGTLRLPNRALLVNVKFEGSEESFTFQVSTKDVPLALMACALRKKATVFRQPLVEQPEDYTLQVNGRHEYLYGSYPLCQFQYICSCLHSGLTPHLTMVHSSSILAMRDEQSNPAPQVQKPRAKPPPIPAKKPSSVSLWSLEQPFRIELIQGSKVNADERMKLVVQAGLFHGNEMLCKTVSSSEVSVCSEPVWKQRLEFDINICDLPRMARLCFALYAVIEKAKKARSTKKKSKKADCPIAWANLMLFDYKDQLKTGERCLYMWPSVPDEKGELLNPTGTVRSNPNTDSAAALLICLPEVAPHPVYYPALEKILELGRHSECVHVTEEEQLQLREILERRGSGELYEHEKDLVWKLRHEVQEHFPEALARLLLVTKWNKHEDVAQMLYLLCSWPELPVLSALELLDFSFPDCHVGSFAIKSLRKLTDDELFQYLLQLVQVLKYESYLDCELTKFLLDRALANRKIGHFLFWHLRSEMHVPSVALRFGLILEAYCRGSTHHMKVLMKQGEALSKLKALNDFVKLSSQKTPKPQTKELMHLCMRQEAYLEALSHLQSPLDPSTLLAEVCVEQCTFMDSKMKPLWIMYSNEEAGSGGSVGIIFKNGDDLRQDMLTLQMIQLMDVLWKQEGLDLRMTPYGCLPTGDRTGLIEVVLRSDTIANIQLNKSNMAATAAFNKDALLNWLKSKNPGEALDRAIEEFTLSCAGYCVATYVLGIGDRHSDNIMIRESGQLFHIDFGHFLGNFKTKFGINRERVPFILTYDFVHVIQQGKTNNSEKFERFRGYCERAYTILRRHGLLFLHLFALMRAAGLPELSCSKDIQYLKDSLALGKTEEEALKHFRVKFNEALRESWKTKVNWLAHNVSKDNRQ
T3 sequence (P27986 whole entry partner): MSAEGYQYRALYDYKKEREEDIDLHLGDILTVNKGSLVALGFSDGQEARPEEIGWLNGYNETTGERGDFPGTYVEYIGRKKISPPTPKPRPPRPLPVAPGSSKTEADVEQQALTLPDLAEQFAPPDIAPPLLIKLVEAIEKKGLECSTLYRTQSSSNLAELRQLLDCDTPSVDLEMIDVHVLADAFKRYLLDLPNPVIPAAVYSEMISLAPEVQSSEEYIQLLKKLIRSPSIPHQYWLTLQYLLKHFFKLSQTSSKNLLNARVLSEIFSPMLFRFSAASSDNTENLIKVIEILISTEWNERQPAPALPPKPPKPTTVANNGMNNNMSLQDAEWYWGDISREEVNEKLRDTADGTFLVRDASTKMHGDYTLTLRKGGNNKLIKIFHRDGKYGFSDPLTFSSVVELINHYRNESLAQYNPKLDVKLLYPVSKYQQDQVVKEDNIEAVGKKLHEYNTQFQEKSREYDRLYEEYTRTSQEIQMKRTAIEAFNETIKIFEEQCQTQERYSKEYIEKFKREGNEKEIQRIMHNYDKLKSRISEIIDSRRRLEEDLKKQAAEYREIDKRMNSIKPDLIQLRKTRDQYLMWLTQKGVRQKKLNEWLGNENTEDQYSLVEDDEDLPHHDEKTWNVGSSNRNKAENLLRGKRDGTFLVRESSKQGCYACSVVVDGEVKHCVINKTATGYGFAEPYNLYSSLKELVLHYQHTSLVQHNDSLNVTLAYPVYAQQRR
Description: as §1, §2, §3

HCC1954 (H1047R) = test: Proliferation inhibition of PI3Kα mutant cancer cells, Cell Titer-Glo, HCC1954; assay type: cell-based; conditions: Homo sapiens
Description: (§4) The proliferation inhibitory effect of the compounds of the examples on the PI3Kα mutant cancer cell lines (HCC1954, HGC-27 and MKN1) was detected by Cell Titer-Glo method. Cell lines were cultured in RPMI 1640 medium (Gibco #22400089) containing 10% FBS (Gibco #10091148) and 1% P/S (Hyclone #SV30010) under the condition of 37° C. and 5% CO2. The cells were collected before the experiment, and the cell density was adjusted after cell counting. The cells were seeded in a white 96-well plate (Corning #3610) at a density of 1000 to 10000 cells/well, and incubated in an incubator at 37° C. and 5% CO2 overnight. The prepared compound solutions of different concentrations and the corresponding solvent controls were added to the plate. The plate was again incubated in an incubator at 37° C. and 5% CO2 for 48 to 96 hours. Then the cell plate and its contents were equilibrated to room temperature. 20 to 100 μL of Cell Titer-Glo solution (Promega #G7573) was added to each well, and the plate was shaken and mixed well, then incubated at room temperature for 5 to 30 minutes in the dark. The chemiluminescence was measured by a SynergyH1 microplate reader from BioTek.
(§5) The percentage inhibition data of the compound-treated well was calculated from solvent control wells on the plate {% inhibition=100−([…])×100}. IC50 values were calculated using GraphPad prism and using a four-parameter nonlinear logistic formula to fit the data of different concentrations and corresponding percent inhibition.

MKN1 (E545K) = test: Proliferation inhibition of PI3Kα mutant cancer cells, Cell Titer-Glo, MKN1; assay type: cell-based; conditions: Homo sapiens, MKN-1
Description: as §4, §5

HGC-27 (E542K) = test: Proliferation inhibition of PI3Kα mutant cancer cells, Cell Titer-Glo, HGC-27; assay type: cell-based; conditions: Homo sapiens
Description: as §4, §5

HCC1954 cell = test: In vivo efficacy test, HCC1954 tumor-bearing nude mice; set-up: species or system BALB/c nude mice; conditions: oral, 10 mg/kg, once/day, 21 days (Example 22: 19 days)
Description: • a. A strain of HCC1954 cell was taken from the cell bank, recovered with RPMI-1640 medium (RPMI-1640+10% FBS+1% SP), plated in a cell culture flask (cell type, date, name of the experimenter and the like were labeled on the wall of the flask) and cultured in a CO2 incubator (the temperature was 37° C. and the CO2 concentration was 5% in the incubator). • b. Cells were passaged when they covered 80 to 90% of the bottom of the culture flask. After passage, the cells continued to be cultured in the CO2 incubator. This process was repeated until the number of cells was sufficient for the in vivo efficacy test. • c. The cultured cells were collected and counted with an automatic cell counter, and then resuspended with PBS and Matrigel Matrix according to the counting results to prepare a cell suspension (density 5×10^7/mL), which was placed in an ice box for use. 4.3.2 Cell Inoculation • a. The nude mice were labeled with disposable universal ear tags for rats and mice before inoculation. • b. During the inoculation, the cell suspension was mixed well. 0.1 to 1 mL of the cell suspension was drawn with a 1 mL syringe, air bubbles were removed, and then the syringe was placed on an ice pack for use. • c. The nude mouse was bound with the left hand. The position on the right side of the back close to the right shoulder of the nude mouse (inoculation site) was disinfected with 75% alcohol. Inoculation started after 30 seconds. • d. The test nude mice were successively inoculated (each mouse was inoculated with 0.1 mL of cell suspension). 4.3.3 Tumor Measurement, Grouping and Administration of Tumor-Bearing Mice • a. According to the tumor growth, the tumors was measured on 14 to 18 days after inoculation, and the tumor size was calculated. Calculation of tumor volume: tumor volume (mm^3)=length (mm)×width (mm)×width (mm)/2 • b. The tumor-bearing mice were grouped according to their body weight and tumor size by random grouping. • c. The test compounds were administered according to the grouping results (administration route: oral administration; administration dose: 10 mg/kg; administration volume: 10 mL/kg; administration frequency: once/day; administration cycle: 21 days; vehicle: 0.5% CMC/1% Tween 80). • d. Tumors were measured and weighed twice a week after the administration of test compounds began. • e. Animals were euthanized at the end of the experiment. • f. Data were processed by using softwares such as Excel. […] When the tumor regress, TGI (%)=[1−(average tumor volume of the treatment group at the end of the administration−average tumor volume of the treatment group at the beginning of the administration)/average tumor volume of the treatment group at the beginning of the administration]×100%.

SD rats = test: Toxicity test of a 7-day repeatedly intragastric administration in SD rats; assay type: in vivo; conditions: SD rats, intragastric once/day, 7 days
From the text: • Test compound 1: GDC-0077 • Test compound 2: the compounds of Example 22 and Example 62 3.2.2 Vehicle • Name: 20% aqueousSBE-β-CD (Captisol) solution 3.2.3 Animal Information • Species & strains: Sprague-Dawley (SD) rat • Animal grade: SPF grade • Number and sex of animals: 160 rats, half male and half female. 3.2.4 Instruments • The ADVIA®2120 series Hematology System with Autoslide was used for blood cell counting; • The SYSMEX CA-500 Coagulation Analyzer was used for the detection of coagulation function indicators; • The TBA-120FR Automated Biochemical Analyzer was used for the detection of blood biochemical indicators; • The Easylyte Electrolyte Analyzer was used for the detection of electrolytes; • The liquid mass spectrometry detector model API4000; • The electron spray ionization (ESI) positive ion mode and column type Agilent ZORBAX XDB-C18 (3.5 μm, 2.1×50 mm) were used for bioanalytical detection of plasma samples. 3.3 Experimental Method • 1) In the experiment, 160 rats (80 rats/sex) were divided into 20 groups according to their sex and body weight, wherein 100 rats were used for toxicology study (groups 1 to 10, 5 rats/sex/group) and 60 rats were used for toxicokinetic study (groups 11 to 20, 3 rats/sex/group); • 2) As the vehicle control group, the animals in groups 1 and 11 were intragastrically administered 20% aqueous SBE-β-CD (Captisol) solution; • 3) The animals in groups 2 and 12, groups 3 and 13, and groups 4 and 14 were intragastrically administered 10, 30 and 60 mg/kg of GDC-0077, respectively; • 4) The animals in groups 5 and 15, groups 6 and 16, and groups 7 and 17 were intragastrically administered 10, 30 and 60 mg/kg of the compound of Example 22, respectively; • 5) The animals in groups 8 and 18, groups 9 and 19, groups 10 and 20 were intragastrically administered 10, 30 and 60 mg/kg of the compound of Example 62, respectively; • 5) The animals were administered once a day for 7 consecutive days (the animals in groups 7, 17, 10 and 20 were administered for 6 consecutive days). • 6) The administration volume was 10 mL/kg. • 7) During the experiment, items such as clinical observation, body weight, food intake, clinicopathological indicators (blood cell count, coagulation function, blood biochemistry), toxicokinetics and the like were studied. • 8) All animals were euthanized on Day 8 (the animals in groups 7, 10, 17 and 20 were euthanized after administration on Day 6). • 9) During the experiment, gross anatomical observation was performed on the animals in groups 1 to 10, animals in groups 17 and 20, and dead animals (including animals in toxicological study). Histopathological examination was performed on abnormal tissues, gastrointestinal tissues (such as colon, cecum) and immune tissues (such as thymus). […]

[1] = Hygroscopicity experiment; assay type: physicochemical; conditions: RH 80%
Description: Crystal form A of mesylate salt, crystal form D of sulfate salt and crystal form A of ethanesulfonate salt of (S)-2-((2-((R)-4-(difluoromethyl)-2-oxothiazolidin-3-yl)-5,6-dihydrobenzo[f]imidazo[1,2-d][1,4]oxazepin-9-yl)amino)propionamide were placed in saturated water vapor with different relative humidity, so that the compound and water vapor reached a dynamic equilibrium, and the percentage of hygroscopic weight gain of the compound after the equilibrium was calculated.

[2] = PK studies in animals of salt crystal forms, intragastric 30 mg/kg; assay type: in vivo; conditions: 0.5% HPMC K4M suspension
Description: 7.2.1 Crystal form A of mesylate salt, crystal form D of sulfate salt and crystal form A of ethanesulfonate salt of (S)-2-((2-((R)-4-(difluoromethyl)-2-oxothiazolidin-3-yl)-5,6-dihydrobenzo[f]imidazo[1,2-d][1,4]oxazepin-9-yl)amino)propionamide were evenly suspended in an aqueous solution containing 0.5% HPMC (hydroxypropyl methylcellulose) K4M, and then intragastrically administered to rats in duplicate at a dose of 30 mg/kg. The amount of the compound was all converted into the amount of the same compound (S)-2-((2-((R)-4-(difluoromethyl)-2-oxothiazolidin-3-yl)-5,6-dihydrobenzo[f]imidazo[1,2-d][1,4]oxazepin-9-yl)amino)propionamide.

[3] = rat, in vivo, po, rats, 30 mg/kg (as free compound)

T1 sequence (P42338 whole entry): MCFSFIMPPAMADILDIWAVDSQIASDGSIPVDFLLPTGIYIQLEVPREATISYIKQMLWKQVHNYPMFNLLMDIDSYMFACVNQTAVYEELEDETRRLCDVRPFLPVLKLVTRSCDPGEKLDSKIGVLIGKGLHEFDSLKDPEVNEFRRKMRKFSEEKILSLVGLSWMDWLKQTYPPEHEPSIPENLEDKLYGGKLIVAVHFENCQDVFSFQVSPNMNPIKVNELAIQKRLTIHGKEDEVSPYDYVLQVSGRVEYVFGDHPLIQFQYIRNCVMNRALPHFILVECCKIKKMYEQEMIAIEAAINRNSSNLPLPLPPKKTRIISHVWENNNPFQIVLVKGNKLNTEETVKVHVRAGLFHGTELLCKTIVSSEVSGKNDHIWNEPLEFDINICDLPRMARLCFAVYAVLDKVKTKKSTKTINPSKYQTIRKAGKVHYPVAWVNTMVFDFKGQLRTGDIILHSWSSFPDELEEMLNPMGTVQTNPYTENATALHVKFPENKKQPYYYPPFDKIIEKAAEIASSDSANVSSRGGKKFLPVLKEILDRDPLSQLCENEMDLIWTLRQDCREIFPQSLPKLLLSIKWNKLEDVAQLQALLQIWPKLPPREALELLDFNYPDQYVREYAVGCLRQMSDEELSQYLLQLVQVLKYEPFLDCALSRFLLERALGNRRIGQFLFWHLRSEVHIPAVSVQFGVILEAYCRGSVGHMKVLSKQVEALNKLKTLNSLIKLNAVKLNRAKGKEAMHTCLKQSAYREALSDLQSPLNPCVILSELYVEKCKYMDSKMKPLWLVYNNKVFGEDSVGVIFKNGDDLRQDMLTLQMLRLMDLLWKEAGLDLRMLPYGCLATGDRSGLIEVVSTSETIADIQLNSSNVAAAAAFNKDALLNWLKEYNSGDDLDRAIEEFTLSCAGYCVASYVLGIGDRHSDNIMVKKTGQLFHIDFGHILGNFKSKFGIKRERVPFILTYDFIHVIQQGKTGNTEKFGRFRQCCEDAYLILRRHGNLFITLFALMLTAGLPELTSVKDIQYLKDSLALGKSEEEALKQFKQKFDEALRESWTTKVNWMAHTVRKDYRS
T1 sequence (P27986 whole entry partner): as the sequence (P27986 whole entry partner) above

## C[C@H](Nc1ccc2c(c1)OCCn1cc(N3C(=O)O[C@H](C)[C@H]3C(F)F)nc1-2)C(N)=O [Example 25, (S)-2-((2-((4S,5R)-4-(difluoromethyl)-5-methyl-2-oxooxazolidin-3-yl)-5,6-dihydrobenzo[f]imidazo[1,2-d][1,4]oxazepin-9-yl)amino)propionamide]
PI3Kβ
  Selectivity of PI3Kα vs PI3Kβ: 1499
PI3Kγ
  Selectivity of PI3Kα vs PI3Kγ: 401
PI3Kδ
  Selectivity of PI3Kα vs PI3Kδ: 280
HCC1954 (H1047R)
  IC50: 79 nM
MKN1 (E545K)
  IC50: 84 nM
HGC-27 (E542K)
  IC50: 93 nM
HCC1954 cell
  Tumor growth inhibition rate: 120%

## C[C@H](Nc1ccc2c(c1F)OCCn1cc(N3C(=O)SC[C@H]3C(F)F)nc1-2)C(N)=O [Example 50, (S)-2-((2-((R)-4-(difluoromethyl)-2-oxothiazolidin-3-yl)-8-fluoro-5,6-dihydrobenzo[f]imidazo[1,2-d][1,4]oxazepin-9-yl)amino)propionamide]
PI3Kβ
  Selectivity of PI3Kα vs PI3Kβ: 197
PI3Kγ
  Selectivity of PI3Kα vs PI3Kγ: 103
PI3Kδ
  Selectivity of PI3Kα vs PI3Kδ: 81
HCC1954 (H1047R)
  IC50: 98 nM
MKN1 (E545K)
  IC50: 118 nM
HGC-27 (E542K)
  IC50: 233 nM
HCC1954 cell
  Tumor growth inhibition rate: 96%

## COC[C@H](Nc1ccc2c(c1)OCCn1cc(N3C(=O)SC[C@H]3C(F)F)nc1-2)C(N)=O [Example 52, (S)-2-((2-((R)-4-(difluoromethyl)-2-oxothiazolidin-3-yl)-5,6-dihydrobenzo[f]imidazo[1,2-d][1,4]oxazepin-9-yl)amino)-3-methoxypropionamide]
PI3Kβ
  Selectivity of PI3Kα vs PI3Kβ: 754
PI3Kγ
  Selectivity of PI3Kα vs PI3Kγ: 376
PI3Kδ
  Selectivity of PI3Kα vs PI3Kδ: 139
HCC1954 (H1047R)
  IC50: 57 nM
MKN1 (E545K)
  IC50: 109 nM
HGC-27 (E542K)
  IC50: 137 nM
HCC1954 cell
  Tumor growth inhibition rate: 98%

## C[C@H](Nc1ccc2c(c1)OCCn1cc(N3C(=O)OC[C@H]3C(F)F)nc1-2)C(N)=O [GDC-0077, reference compound]
SD rats
  lethal dose: 60 mg/kg

## C[C@H](Nc1ccc2c(c1)OCCn1cc(N3C(=O)SC[C@H]3C(F)F)nc1-2)C(N)=O.O=S(=O)(O)O [crystal form D of sulfate salt, (S)-2-((2-((R)-4-(difluoromethyl)-2-oxothiazolidin-3-yl)-5,6-dihydrobenzo[f]imidazo[1,2-d][1,4]oxazepin-9-yl)amino)propionamide]
[1]
  hygroscopic weight gain: 1.256%
  hygroscopicity (in words): had hygroscopicity
[2]; 30 mg/kg
  exposure in rats (in words): higher exposures
[2]; [3]
  AUC(0-inf): 9600 ng·h/mL
  AUC(0-t): 9420 ng·h/mL
  Cmax: 1360 ng/mL
  Tmax: 1 h
  half-life: 3.3 h
[2]; rat, in vivo, po, rats, 30 mg/kg (as free compound), read-out: MRT0-∞
  MRT inf: 5.77 h

— patent publication US12624050B2, “Three fused ring derivative-containing salt or crystal form and pharmaceutical composition thereof” (Shanghai Hansoh Biomedical Co., Ltd., priority 2019, dated 2026)
